Results from patent US10287581B2, “Cell penetrating peptides for intracellular delivery of molecules” (AADIGEN, LLC, priority 2011, dated 2019).

Tests used:
PC3 xenografted tumors = assay: Tumour growth in PC3-xenografted mice, cyclin B1 siRNA; assay type: in vivo
Experimental: FIGS. 11A-11D: NANOPEP-6 Cyclin B1 siRNA delivery upon topical and systemic injection. Athymic female nude mice were subcutaneously inoculated into the flank with 1×10^6 PC3 (11A and 11B) or HT29 (11C and 11D). Two to three weeks after tumour implant, when tumour size reached about 100 mm^3, animals were treated by intratumoral (11A and 11C) injections, every 3 days, with a solution either saline buffer solution (closed triangle), free Cyc-B1 siRNA (open triangle), control siRNA Cyc-B3 (closed box) or Cyc-B1 siRNA at 5 μg (open circle) and 10 μg (closed circle) complexed with NANOPEP-6 at a 1/20 molar ratio. […] Tumour diameter was measured in two directions at regular intervals using a digital calliper and tumour volume was calculated as length×width×height×0.52. […]
Tumour diameter was measured in two directions at regular intervals using a digital calliper and tumour volume was calculated as length×width×height×0.52. […] The statistical significance of the results was calculated by Student's t test and p<0.05 considered to be statistically significant. […]
The potential of NANOPEP-6 (VEPEP6/VEPEP6) to deliver cyclin B1 siRNA in vivo was first evaluated on human prostate carcinoma cell PC3-xenografted mice (FIG. 11A). The effect of local intratumoral administration of NANOPEP-6/siRNA particles (molar ratio 20/1) on the growth of established subcutaneous tumours was evaluated. […]

cyclin B1 = assay: Cyclin B1 silencing at protein (Western blotting) and mRNA (Quantigen) level; assay type: cell-based, Human; conditions: 200 nM siRNA complexed with VEPEP-6 at a 1/20 ratio
Experimental: FIGS. 6A-6C: VEPEP-6 dose response of Cyclin B1 silencing at the protein and mRNA levels on Hela (6A) and HS68 (6B) cells. Stock solution of VEPEP-6/siRNA ([…]) particles were prepared at a molar ratio of 1/20 (siRNA/VEPEP-6), and lower concentrations (from 200 nM to 0.125 nM) were obtained by serial dilution of the stock solution in PBS. HeLa (Panel A) and HS-68 (Panel B) cells (60% confluency) were overlaid with preformed complexes for 30 min, then fresh DMEM supplemented with 10% FCS was added directly to the cells, which were then returned to the incubator for 24 hrs. Cyclin B1 protein levels were determined by Western Blotting using Cdk2 as a control for quantification (white bars). Cyclin B1 mRNA levels were measured 12 hrs after transfection using Quantigen technology (black bars). Mismatched Cyc-B3 siRNA associated with VEPEP-6 (200 nM) and empty VEPEP-6 particles (20 μM) were used as a control. 6C: Dose-response of G2-arrest associated with Cyclin B1 silencing. HeLa (black bars) and HS68 (white bars) cells were treated with increasing concentrations of VEPEP-6/siRNA-Cyc-B1 from 0.25 nM to 20 nM. The cell cycle status was evaluated by FACS analysis. […]
Cyclin B1 mRNA and protein levels were determined 12 and 24 hrs following transduction, using Quantigen (Panomics Inc.) and Western blotting, respectively. […]

Row | Substance | inhibition of tumour growth (PC3 xenografted tumors; complexed with NANOPEP-6, 0.5 mg/kg) | effect on cyclin B1 levels and cell cycle progression (cyclin B1) | effect on tumour growth (PC3 xenografted tumors; controls: naked siRNA 100 (intratumoral or intravenous), carrier alone)
1 | Cyc-B3: cyclin B1 siRNA harbouring two mismatches, control, SEQ ID No: 19/20 (chain 1 GGUGAAGAUCAGCAUGGCATT; chain 2 UGCCAUGUCGAUCUUCACCTT; chemistry not given here) | unable to inhibit tumour growth | no effect | –
2 | naked siRNA: Cyc-B1 siRNA without carrier, SEQ ID No: 17/18 (chain 1 GGCGAAGAUCAACAUGGCATT; chain 2 UGCCAUGUUGAUCUUCGCCTT; chemistry not given here) | – | – | no significant effect
